Article PMC3283556, “The Activities of Current Antimalarial Drugs on the Life Cycle Stages of Plasmodium: A Comparative Study with Human and Rodent Parasites” (PLoS Medicine, 2012)
“Also recorded” adds a separate entry of the source. Where two headings read alike, the source gives them in different places.

Key:
[1] = system: Plasmodium oocysts; experiment: Oocyst development / sporogony, Plasmodium species not stated at the place; assay type: in vivo; conditions: for inhibition at 10 µM: Plasmodium, box linked to oocysts, read-out: Inhibition at 10 μM (oocysts, Figure 5); for effect on sporogony / oocyst production: species not given
Method: (§1) Membrane feeds were performed as described previously. Briefly, PbGFPcon-infected mouse blood was mixed with compounds, immediately placed into membrane feeders (39°C) and offered for 30 min to 80–100 overnight-starved A. stephensi (SDA 500 strain). After 7–9 d at 19°C/80%RH, mosquito midguts were dissected out. Midguts were fixed with paraformaldehyde and oocyst number was determined microscopically by semi-automated analysis as previously described.
Gametocyte cultures were produced according to the same protocol as the Pf exflagellation assay. Pooled gametocyte cultures were evenly divided between compounds in fresh medium and incubated at 37°C for 24 h. The parasite pellets were then resuspended in fresh RBCs and human serum treated with the compounds to a 50% haematocrit and immediately fed to mosquitoes as described above and then maintained at 27°C/60%RH for 10–12 d before dissection and counting. […]

[2] = system: P. falciparum and P. vivax; set-up: method as in personal communication, MMV; conditions: phase IIa, P. falciparum and P. vivax patients; ref personal communication, MMV; cited from earlier work
[3] = system: P. falciparum mature gametocytes / male gamete exflagellation; experiment: P. falciparum exflagellation assay; assay type: cell-based, Plasmodium falciparum; conditions: for inhibition at 10 µM: Plasmodium falciparum
Method: After 24 h, exflagellation was triggered by a temperature decrease to ∼21°C and observed 20 min later under the microscope. Highly motile exflagellation centres were recorded for ∼50–150 adjacent fields of view and reported per 10,000 RBCs.
(§2) (A) Assays examined exflagellation (P. falciparum), ookinete formation (P. berghei), or oocyst formation (P. falciparum). All antimalarials were screened at 10 µM. (B) The biological content of the in vitro P. berghei ookinete assay spans gamete formation, fertilization, zygote development, and ookinete formation. […] (D) The in vitro P. falciparum exflagellation assay exposes mature gametocytes to antimalarials for 24 h before triggering exflagellation. […] All experiments in triplicate. (E) The in vivo P. falciparum oocyst assay differs from the P. berghei oocyst assay in that mature gametocytes were exposed to the antimalarials in culture for 24 h before feeding to mosquitoes.

[4] = system: P. falciparum asexual blood stage parasites (strains NF54, D6, K1, W2, 7G8, TM90C2A, V1/S); experiment: [3H]-hypoxanthine incorporation growth inhibition assay, asexual blood stage; assay type: cell-based, Plasmodium falciparum
Method: In vitro antimalarial activity was measured using the [^3H]-hypoxanthine incorporation assay with various strains of P. falciparum obtained from MR4. Results were expressed as the concentration resulting in 50% inhibition (IC50).
The half-maximal inhibitory concentrations (IC50) were determined for each molecule (Table S2).
Figure 2 The potencies of selected antimalarials against asexual blood stages. Main classes of antimalarials were tested against the blood stage of seven Plasmodium falciparum strains in the [^3H]hypoxanthine incorporation assay as described in Vennerstrom et al.. The strains tested here (obtained from MR4) were two drug-sensitive strains NF54 and D6 and five drug-resistant strains: K1, resistant to chloroquine (CQ) and pyrimethamine (PYR), origin Thailand, carries mutations in genes pfmdr1, pfcrt, pfdhfr, pfdhps; W2, resistant to CQ, PYR, quinine, cycloguanil, and sulfadoxine, origin Vietnam; 7G8, resistant to CQ and PYR, origin Brazil; TM90C2A, resistant to CQ, PYR, and MFQ, origin Thailand; and V1/S, resistant to CQ, PYR and cycloguanil, origin Vietnam. Results are expressed as the concentration resulting in 50% growth inhibition (IC50).Values are means of ≥3 independent experiments. (A) Endoperoxides. (B) 4-AQs. (C) 8-AQs and amino alcohols. (D) Antifolates, antibiotics, and others.

[5] = system: P. falciparum oocyst formation; experiment: Standard membrane feed assay, P. falciparum oocysts in A. stephensi; assay type: in vivo, Plasmodium falciparum; conditions: 10 µM, gametocytes exposed 24 h before feeding
Method: Gametocyte cultures were produced according to the same protocol as the Pf exflagellation assay. Pooled gametocyte cultures were evenly divided between compounds in fresh medium and incubated at 37°C for 24 h. The parasite pellets were then resuspended in fresh RBCs and human serum treated with the compounds to a 50% haematocrit and immediately fed to mosquitoes as described above and then maintained at 27°C/60%RH for 10–12 d before dissection and counting.
as §2, with “Figure 3 The transmission-blocking potential of selected antimalarials in three bioassays that cover different phases of Plasmodium vector stage development. (A)” for “(A)”, “formation. Ookinete formation was insensitive to most of the antimalarials tested.” for “formation.”, “mosquitoes. […] NPC1161-B, lumefantrine, halofantrine, and mefloquine +RS isomer were also active. (n = 4–61 observations; average ± standard error of the mean [SEM]).” for “mosquitoes.”

[6] = set-up: method as in PMID 22759078, PMID 17053895, PMID 18694333, PMID 18840754, PMID 19776738; conditions: human blood, therapeutic / relevant doses; cited from earlier work
[7] = system: P. berghei ookinete formation; experiment: P. berghei ookinete development assay; assay type: cell-based, Plasmodium berghei; conditions: for effect on ookinete formation: 10 µM; for inhibition at 10 µM: Plasmodium berghei, box linked to ookinete, read-out: Inhibition at 10 μM (ookinete, Figure 5)
Method: Compounds and P. berghei gametocyte-infected blood were dispensed in a 96-well plate containing ookinete medium. After 24 h at 19°C, Giemsa-stained ookinetes were counted under the microscope (×40) as previously described,[28].
as §2, with “Figure 3 The transmission-blocking potential of selected antimalarials in three bioassays that cover different phases of Plasmodium vector stage development. (A)” for “(A)”, “formation. Ookinete formation was insensitive to most of the antimalarials tested.” for “formation.”, “mosquitoes. […] NPC1161-B, lumefantrine, halofantrine, and mefloquine +RS isomer were also active. (n = 4–61 observations; average ± standard error of the mean [SEM]).” for “mosquitoes.”

[8] = system: P. berghei oocyst formation; experiment: Standard membrane feed assay, P. berghei oocysts in A. stephensi; assay type: in vivo, Plasmodium berghei; conditions: for transmission-blocking effect on P. berghei oocysts (words): 10 µM
Method: as §1
Supplementary file pmed.1001169.s001.tif: Figure S1 The transmission-blocking potential of selected compounds against P. berghei in standard membrane feeding assays. All antimalarials were screened at 10 µM in triplicate in independent experiments. The biological content of this assay spans gamete formation through to occyst development all within the gut of the mosquito. […] (TIF) Click here for additional data file.

[9] = system: P. yoelii liver stage parasites (liver schizonts); experiment: P. yoelii liver stage assay in HepG2 cells (EEF immunofluorescence); assay type: cell-based, Plasmodium yoelii; conditions: Plasmodium yoelii
Method: (§3) 7.5×10^3 HepG2 cells in 50 µl of medium (1.5×10^5 cells/ml) were seeded in 384 well plates (Aurora 384 IQ-EB Black/Clear Plates) 20–26 h prior to the actual infection. 2 h prior to infection, 50 nl of compound in DMSO (0.1% final DMSO concentration per well) were transferred with a PinTool (GNF Systems) into the assay plates (10 µM final concentration). P. yoelii sporozoites were freshly dissected from infected A. stephensi mosquito salivary glands and filtered twice with a 40-µm strainer. The HepG2 cells were then infected with 8×10^3 sporozoites per well. After infection and 1-h incubation at 37°C, the cultures were washed, new media and compound added, and further incubated with 5-fold increased concentration of penicillin/streptomycin for 48 h at 37°C before exoerythrocytic forms (EEFs) quantification of infected cells by immunofluorescence.
After washing with 1×PBS and fixation of the cells with 4% paraformaldehyde solution (EMS), membranes were permeabilised with 0.5% Triton-X-100 (Thermo Fisher Scientific) and EEFs were stained using a mouse polyclonal serum raised against the Plasmodium heat shock protein 70 (HSP70), an Alexa goat antimouse IgG, Fca-specific DyLight 649 secondary antibody (Invitrogen), and the Hoechst 33342 nucleic acid dye (Invitrogen). Stained EEFs were then quantified using the Opera Confocal High Content Screening system (PerkinElmer). Images were collected using a 20× magnification at a binning of 2 using a 365 Xeon arc lamp illumination to detect the nuclei and 635-nm laser line to excite DyLight649.
(§4) High-content imaging of infected HepG2-CD81 cells was performed as described in Meister et al.. Wells were analysed using a custom Acapella (PerkinElmer) script parameterized for this assay. In brief, images from fields inside the well were first discarded as out of focus when the intensity in the nuclear area was too low. Then hepatic cells were counted by detecting the nuclei labelled with Hoechst 33342 and parasites were segmented using the HSP70 immuno-labelling. Morphology-based (e.g., area, roundness) and intensity-based features were calculated for each object detected including the hepatocyte nuclei and the parasites. Parasitemia was set as the ratio between parasite number (Alexa fluor positive) and the hepatocyte nuclei count, determined at the same time.
(§5) When an infected mosquito bites a host, ∼100 sporozoites may be injected into the dermis from where they rapidly invade liver cells,[33]. This infective step represents the second bottleneck during transmission and therefore another potentially vulnerable point for intervention. In the absence of a practical liver stage assay measuring the formation of P. falciparum/P. vivax liver schizonts, an equivalent assay was developed in P. yoelii and used to assess the activity of the collection of molecules against this specific stage. Specifically, P. yoelii sporozoites were dissected from the salivary glands of infected mosquitoes and were allowed to invade human hepatocarcinoma cells expressing the CD81 protein. The development of the liver schizonts was monitored by immunofluorescence staining using an HSP70 antibody specific to the parasite (Figure 4A).
Figure 4 Validation and results of anti-infectives tested against P. yoelii liver stage parasites. (A) Opera-generated images from a time point experiment using a 20× objective lens. P. yoelii parasites (red) were visualized using a mouse polyclonal HSP70 antibody, and the HepG2 cells (green) were stained with Hoechst 33342 nucleic acid dye. […] (B) A dose response plot with atovaquone from data generated from the Opera imaging system. The median areas of compound-treated parasites were compared to untreated DMSO controls to determine the degree of inhibition.

[10] = system: P. berghei ookinete formation; experiment: P. berghei ookinete development assay; assay type: cell-based; conditions: Plasmodium berghei; medium throughput fluorescent ookinete assay
[11] = system: HepG2 cells; experiment: Growth retardation of HepG2 cells
Method: as §3, §4, §5

[12] = 10 µM, 24 h exposure of mature gametocytes
[13] = 10 μM, box linked to gametocytes/exflagellation, read-out: Inhibition at 10 μM (gametocytes/exflagellation, Figure 5)
[14] = HepG2, box linked to liver schizont, read-out: IC50 (liver schizont, Figure 5)
[15] = read-out: inhibition of exflagellation, 10 µM, 24 h exposure of mature gametocytes

Compound	inhibition at 10 µM [1] [%]	effect on sporogony / oocyst production [1]	effect on exflagellation (words) [3, 12]	inhibition at 10 µM [3, 13] [%]	transmission-blocking effect on P. falciparum oocysts (words) [5]	Cmax [6] [µM]	effect on ookinete formation [7]	IC50 [9, 14] [µM]	inhibition at 10 µM [7] [%]	IC50 [10] [µM]	inhibition at 10 µM [3, 15] [%]	further results
c1cc([C@H]2CC[C@]3(CC2)OO[C@]2(O3)C3CC4CC(C3)CC2C4)ccc1OCCN1CCOCC1 [OZ439]	> 90	impact sporogony	strong inhibitors of gametocyte maturation/gamete formation	> 60	–	–	–	–	–	–	–	clinical efficacy [2]: equivalent efficacy in the treatment of P. falciparum and P. vivax patients
CCCCN(CCCC)CC(O)c1cc(Cl)cc2c1-c1ccc(Cl)cc1/C2=C/c1ccc(Cl)cc1 (stereo not drawn) [lumefantrine]	> 90	impairs development in the vector	only moderate or no inhibition of exflagellation	–	active; also recorded: impaired sporogony	13.9	little activity	–	–	–	–	IC50 ([4]; Plasmodium falciparum): < 0.004 µM; transmission-blocking effect on P. falciparum oocysts (words) ([5]; listed as Lumefantrine): showed activity; effect on exflagellation (words) ([3]; 10 µM, 24 h exposure of mature gametocytes, listed as Lumefantrine): little activity; transmission-blocking effect on P. berghei oocysts (words) [8]: impaired sporogony; also recorded: most notable transmission-blocking activity; transmission-blocking effect on P. berghei oocysts (words) ([8]; listed as Lumefantrine): showed activity; inhibition at 10 µM ([8]; Plasmodium berghei): > 90%
CO[C@H]1O[C@@H]2O[C@@]3(C)CC[C@H]4[C@H](C)CC[C@@H]([C@H]1C)[C@@]24OO3 [artemether]	–	–	–	–	–	0.1	–	< 1	–	–	–	–
O=C1C(O)=C([C@H]2CC[C@H](c3ccc(Cl)cc3)CC2)C(=O)c2ccccc21 [atovaquone]	–	–	–	–	–	–	strongly inhibited ookinete formation	< 1	> 80	0.065	–	potency range against blood stages ([4]; P. falciparum blood stages): subnanomolar range; IC50 ([4]; Plasmodium falciparum, Erythrocyte, box linked to blood stage schizont, read-out: IC50 (erythrocyte schizont, Figure 5)): < 0.001 µM; fold difference in potency between strains ([4]; between the strains D6 and V1/S): ≤ 10 fold
COc1ccc2nc3cc(Cl)ccc3c(Nc3cc(CN4CCCC4)c(O)c(CN4CCCC4)c3)c2n1 [pyronaridine]	–	–	inhibited P. falciparum exflagellation	> 60	–	–	strongly inhibited ookinete formation	< 1	> 80	6	> 80	IC50 ([11]; Homo sapiens, HepG2, read-out: IC50 HepG2): < 0.17 µM; CI (cytotoxicity index) ([11]; IC50 HepG2 compared to IC50 parasite): <0.63; IC50 ([4]; Plasmodium falciparum, asexual blood stage, all parasite lines): 0.002 to 0.01 µM; IC50 ([9]; HepG2, development of P. yoelii liver schizonts following infection of HepG2 cells, read-out: IC50 Parasite): 0.27 ± 0.13 µM; IC50 ([9]; HepG2, dose response, read-out: IC50 liver stage): < 3 µM; effect on exflagellation (words) ([3]; 10 µM, 24 h exposure of mature gametocytes, listed as Pyronaridine): inhibited exflagellation totally
OC(c1cc(C(F)(F)F)nc2c(C(F)(F)F)cccc12)C1CCCCN1 (stereo not drawn) [mefloquine (+RS)]	> 90	–	–	> 60	totally blocked transmission	–	–	–	–	–	> 80	IC50 ([4]; strain not specified): < 0.01 µM; transmission-blocking effect on P. falciparum oocysts (words) ([5]; listed as mefloquine +RS isomer): active
